For series [1], the system named is NCI-H929 human myeloma cells. Put plainly: Inhibition of the proliferation of NCI-H929 cells (luminescent cell viability, CTG). The conditions noted are these: Homo sapiens, NCI-H929, 144 h, 6 days, CellTiter-Glo. Type of series: cell-based. How it is done:
The effect of the compounds of the present invention on the proliferation of NCI-H929 human myeloma cells was evaluated by using a luminescent cell viability test experiment.
The compound was dissolved and diluted to 5 mM in DMSO, and then serially diluted 4-fold in DMSO to a minimum concentration of 0.31 μM. Each concentration was further diluted 50-fold with RPMI 1640 medium (Thermo Fisher, Cat. No. 72400-047). If the IC50 value of the compound was relatively low, the initial concentration of the compound could be lowered.
NCI-H929 cells (Nanjing Cobioer, Cat. No. CBP60243) were cultured in RPMI 1640 complete medium [containing 10% FBS (GIBCO, Cat. No. 10099-141) and 100 units/mL penicillin-streptomycin (Thermo Fisher, Cat. No. 15140122)]. Cells (15000 cells/mL) were plated in 90 μL of the complete medium in a 96-well plate and cultured overnight, and then 10 μL of the compound solution was added into each well. The cells were cultured in an incubator at 37° C. and 5% CO2 for 6 days. Then the cell culture plate was taken out and balanced to room temperature according to the instruction of the CellTilter-Glo (CTG) kit (Promega, Cat. No. G7572). 50 μL CTG reagent was added for complete lysis, the plate was placed at room temperature for 10 minutes, and the luminescence signal was read with a microplate reader (EnVision, Perkin Elmer). The group containing 0.2% DMSO medium was used as 0% inhibition. The XLfit software was used to plot the compound inhibition curve and calculate the inhibitory IC50 value.

The target of series [2] is hERG potassium ion channel (Homo sapiens, UniProt Q12809). As to the kind of experiment: Blockade of the hERG potassium ion channel (whole cell patch clamp). Format: cell-based. As to conditions: HEK293 cells stably overexpressing hERG, pH 7.4, tail current, read-out: The percentage of the inhibition to the hERG current at the solubility of 3 μM (n = 2). How it is done: The effect of the compound of the present invention on possible arrhythmias was assessed by determining the blockade of the hERG potassium ion channel.
hERG potassium ion channel, sequence (Q12809 whole entry): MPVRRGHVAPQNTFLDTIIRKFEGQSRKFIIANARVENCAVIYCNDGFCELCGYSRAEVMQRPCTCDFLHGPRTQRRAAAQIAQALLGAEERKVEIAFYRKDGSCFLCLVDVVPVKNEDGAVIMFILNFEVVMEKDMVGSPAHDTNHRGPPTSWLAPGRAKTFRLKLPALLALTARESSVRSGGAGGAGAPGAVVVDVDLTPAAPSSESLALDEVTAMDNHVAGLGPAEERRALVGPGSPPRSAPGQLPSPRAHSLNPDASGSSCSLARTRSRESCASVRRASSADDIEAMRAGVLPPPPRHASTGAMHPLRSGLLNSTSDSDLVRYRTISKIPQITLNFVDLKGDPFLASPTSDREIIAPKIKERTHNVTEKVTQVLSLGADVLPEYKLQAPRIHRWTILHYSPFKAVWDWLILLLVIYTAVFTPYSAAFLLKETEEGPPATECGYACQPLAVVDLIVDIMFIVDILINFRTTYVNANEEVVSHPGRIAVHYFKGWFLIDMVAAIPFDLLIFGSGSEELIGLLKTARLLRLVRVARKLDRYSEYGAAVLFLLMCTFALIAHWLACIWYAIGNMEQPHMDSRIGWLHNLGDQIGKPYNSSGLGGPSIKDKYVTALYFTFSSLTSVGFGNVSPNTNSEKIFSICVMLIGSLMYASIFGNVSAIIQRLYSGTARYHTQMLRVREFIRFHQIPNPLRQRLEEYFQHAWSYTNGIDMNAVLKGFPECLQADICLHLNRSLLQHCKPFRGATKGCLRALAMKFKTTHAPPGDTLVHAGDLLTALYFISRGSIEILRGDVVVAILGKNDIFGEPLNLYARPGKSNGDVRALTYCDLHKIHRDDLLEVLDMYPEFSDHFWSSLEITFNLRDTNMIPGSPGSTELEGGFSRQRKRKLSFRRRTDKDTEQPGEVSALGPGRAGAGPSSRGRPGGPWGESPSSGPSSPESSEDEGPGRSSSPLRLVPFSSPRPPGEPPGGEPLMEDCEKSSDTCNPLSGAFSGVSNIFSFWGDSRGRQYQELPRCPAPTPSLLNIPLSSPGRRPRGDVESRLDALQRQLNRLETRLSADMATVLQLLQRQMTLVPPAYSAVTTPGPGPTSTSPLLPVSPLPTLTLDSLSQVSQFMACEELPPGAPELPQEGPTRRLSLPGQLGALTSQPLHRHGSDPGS
The experiment method was summarized as follows: • Extracellular fluid: 140 mM NaCl, 3.5 mM KCl, 1 mM MgCl2, 2 mM CaCl2, 10 mM D-glucose, 10 mM HEPES, 1.25 mM NaH2PO4, pH=7.4. • Electrode internal solution: 20 mM KCl, 115 mM K-aspartate, 1 mM MgCl2, 5 mM EGTA, 10 mM HEPES, 2 mM Na2-ATP, pH=7.2. • Compound solution: the compound to be tested was dissolved in DMSO and prepared into a stock solution having a concentration of 10 mM, then diluted into the concentration of 3 mM with DMSO, and then diluted into a solution having a concentration of 3 μM with the extracellular solution for subsequent use. • Cell culture: the HEK293 cell line with the stable hERG potassium channel overexpression (Creacell, Cat. No. A-0320) was cultured in a DMEM medium (Gibco, Cat. No. 11995-065) containing […] (Gibco, Cat. No. 1428478) and 0.8 mg/mL G418 (Amresco, Cat. No. E859-5G) at the culture temperature of 37° C. under the carbon dioxide concentration of […]. The spent medium was removed and the cells were washed once with PBS (Gibco, Cat. No. 1009-141). Then 1 mL TrypLE™ Express solution (Gibco, Cat. No. 12604021) was added and the cells were incubated at 37° C. […]. When the cells were detached from the bottom of the dish, 5 mL of complete medium preheated at 37° C. was added. The cell suspension was transferred to a sterile centrifuge tube and centrifuged at 1000 rpm for 5 minutes before cell collection. Cells were inoculated in 6 cm cell culture dishes at the cell inoculation volume of 2.5*10^5 per dish (final volume: 5 mL). Before the patch clamp detection experiment, 3*10^3 cells were plated on the cover slips, cultured in 24-well plates (final volume: 500 μL), and detected 18 hours later. • Voltage stimulation protocol by recording the whole-cell hERG potassium current with the whole cell patch clamp: after forming a whole-cell seal, the cell membrane voltage was clamped at −80 mV. The clamping voltage was depolarized from −80 mV to −50 mV and maintained for 0.5 seconds (as leakage current detection), then stepped to 30 mV and maintained for 2.5 seconds, then quickly returned to −50 mV and maintained for 4 seconds to excite the hERG channel tail current (Peak tail current), the hERG potassium current was recorded every other 10 seconds. Experiment data were collected with EPC-10 amplifier (HEKA) and stored in PatchMaster (HEKA v2x73) software. • Determination: A capillary glass tube (Sutter Instruments) was drawn into a recording electrode with a microelectrode drawing instrument (Sutter Instruments). The cell-loaded cover slip was removed from the 24-well plate placed in the incubator and then placed under an inverted microscope. […] In the whole-cell recording mode, the slow capacitance compensation was performed and the membrane capacitance and the series resistance were recorded, during which the leakage compensation was not applied. After the hERG tail current recorded with the whole cell was stabilized for 3-5 minutes, 8 mL of the compound-free extracellular fluid (blank control) and 8 mL of 3 μM solution of the compound to be tested were sequentially flowed through the recording bath with the gravity perfusion to act on the cells for 5 minutes (or to the current stabilization). The current detected for each cell in the compound-free extracellular fluid was served as its own control. […]
A general note: The hERG channel carries a current that helps repolarise heart muscle cells.

Series [3] in a line: In vivo pharmacokinetic experiment in rats. The conditions noted are these: male Sprague-Dawley rats, n = 3; for F: PO 5 mpk vs IV 1 mpk; for clearance / Vd / AUC(0-t) / Cmax: rat, plasma; for clearance / Vd: 1 mg/kg, IV 1 mpk; for Vd: read-out: VSS; for AUC(0-t) / Cmax: 5 mg/kg, PO 5 mpk. How it is done: The compound to be tested was dissolved in 5% DMA+20% Solutol+75% Saline vehicle to prepare a 0.5 mg/mL administration solution.
2 mL/kg of the administration solution was administered through the intravenous injection (IV) at a dose of 1 mg/kg to three fed male Sprague-Dawley rats, respectively. Blood samples were collected at 0.083, 0.25, 0.5, 1, 2, 4, 8 and 24 hours after administration. 10 mL/kg of the administration solution was administered by gavage (PO) at a dose of 5 mg/kg to other three fed male Sprague-Dawley rats, respectively. Blood samples were collected at 0.25, 0.5, 1, 2, 4, 8 and 24 hours after administration.
The concentration of the compound to be tested in plasma was obtained with the LC-MS/MS quantitative analysis with an API-4500 mass spectrometer, and the limit of quantitation (LOQ) for the plasma was 1 ng/mL.

Data on four compounds can be found in US20230271933A1, “HETEROCYCLIC IMMUNOMODULATOR” (Beijing Innocare Pharma Tech Co., Ltd., priority 2020, published 2023).

The IC50 is the concentration that gives 50% inhibition. A low value points to inhibition by little substance. As usually defined, the inhibition is how much of the control response was suppressed. Broadly, the clearance is the volume of plasma or blood freed of the substance per unit of time. A lower clearance goes with inefficient removal. As a reminder, the AUC(0-t) is the area under the concentration-time curve up to a stated or last time point. A higher AUC(0-t) goes with high exposure. A word on the Cmax: it is the highest concentration seen after dosing.

In the case of `C[C@H](c1ccc(COc2cccc3c2CN([C@H]2CCC(=O)NC2=O)C3=O)cc1)N1CCN(c2ccc(C#N)cc2F)CC1` [Compound 6, 4-(4-((R)-1-(4-(((2-((S)-2,6-dioxopiperidin-3-yl)-1-oxoisoindolin-4-yl)oxy)methyl)phenyl)ethyl)piperazin-1-yl)-3-fluorobenzonitrile], in series [1], 0.1 nM corresponded to half-maximal inhibition (IC50). Besides, the inhibition at 5 min, 3 µM in series [2] came out at 52%. In addition, in series [3], the F is 14%, the clearance came out at 1 mL/min/kg, the Vd is 0.27 L/kg and the AUC(0-t) is 11800 ng·h/mL. In series [3], this compound showed a Cmax of 1800 ng/mL.

On to `C[C@H](c1ccc(COc2cccc3c2CN([C@H]2CCC(=O)NC2=O)C3=O)cc1)N1CCN(c2ccc(C#N)cn2)CC1` [Compound 16, 6-(4-((R)-1-(4-(((2-((S)-2,6-dioxopiperidin-3-yl)-1-oxoisoindolin-4-yl)oxy)methyl)phenyl)-ethyl)piperazin-1-yl)nicotinonitrile], for which the 50% inhibitory concentration (IC50) in series [1] turned out to be 0.1 nM. In addition, in series [2], the inhibition at 5 min, 3 µM turned out to be 58%. In series [3], the F is listed as 27%, the clearance worked out at 5.2 mL/min/kg, the Vd came out at 0.56 L/kg and the area under the curve AUC(0-t) came to 4280 ng·h/mL. In series [3], this compound registered a peak concentration (Cmax) of 555 ng/mL.

For the compound `C[C@H](c1ccc(COc2cccc3c2CN([C@H]2CCC(=O)NC2=O)C3=O)cc1)N1CCN(c2ccc(C#N)nc2)CC1` [Compound 21, 5-(4-((R)-1-(4-(((2-((S)-2,6-dioxopiperidin-3-yl)-1-oxoisoindolin-4-yl)oxy)methyl)phenyl)ethyl)piperazin-1-yl)-2-cyanopyridine], the IC50 in series [1] was 0.04 nM. The inhibition at 5 min, 3 µM in series [2] worked out at 49%. In series [3], the F was 18%, the clearance came to 14 mL/min/kg, the Vd was determined as 0.65 L/kg and the exposure AUC(0-t) turned out to be 1010 ng·h/mL. Also, the peak level in series [3] (Cmax) was 318 ng/mL.

In series [1], `C[C@H](c1ccc(COc2cccc3c2CN([C@H]2CCC(=O)NC2=O)C3=O)cc1)N1CCN(c2ncc(C#N)cc2F)CC1` [Compound 22, 6-(4-((R)-1-(4-(((2-((S)-2,6-dioxopiperidin-3-yl)-1-oxoisoindolin-4-yl)oxy)methyl)phenyl)-ethyl)piperazin-1-yl)-5-fluoronicotinonitrile] came in with a half-maximal inhibitory concentration (IC50) of 0.6 nM. Moreover, the inhibition at 5 min, 3 µM in series [2] is 20%. Moreover, in series [3], the F is on record as 30%, the clearance was 2.2 mL/min/kg, the Vd amounted to 0.36 L/kg and the AUC(0-t) is 13000 ng·h/mL. In addition, the Cmax in series [3] was found to be 1440 ng/mL.
